The values that follow come from patent US11440923B2, “Substituted macrocyclic indole derivatives” (Bayer Aktiengesellschaft, priority 2017, dated 2022).

Molecules are shown by their SMILES. Where a name gives a salt, the structure may show the parent alone. Read-outs that look alike come from different tables or passages of the source.

Common to all, as to assay type: cell-based
Data set [1] relates to SUDHL10 cells. Kind of data set: Induction of caspase-3/7 activity in SUDHL10 cells (Assay 4). An outline of the steps: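 Caspase-3/7 activity measured in DLBCL lines after 3 h compound exposure at 37 °C, following overnight plating; Caspase-Glo 3/7 luminescence read after 1 h at 37 °C. Medium-only background subtracted, values normalized to mean of DMSO-treated cells.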
Data set [2] has as its system SUDHL10 cells. Kind of data set: Induction of cytotoxicity in SUDHL10 cells (Assay 6). The following applies: 5 h, CellTiter-Glo, read-out: Cytotox SUDHL10 IC50 (median). An outline of the steps: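 Following overnight seeding at 37 °C, cells are treated with compound for 5 h, after which CellTiter-Glo reagent is added and luminescence measured following a 15 min room-temperature shake.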
In general terms: ATP-based viability assays read luminescence as a measure of living cells.

The subject of another data set is SUDHL5 cells. Kind of data set: Antiproliferation assay SUDHL5 (Assay 7). An outline of the steps:
(§1)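 Luminescent viability signal (CellTiter-Glo) after 72 h of treatment served as read-out. IC50 values were derived with day 0 luminescence as CI and DMSO wells as C0.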

The test system of a further data set is AMO-1 cells. Kind of data set: Antiproliferation assay AMO-1 (Assay 7). An outline of the steps: as §1
Where [3] appears, read: Homo sapiens, SU-DHL10, 3 h, caspase-3/7 induction, 3 h; read-out: Caspase SUDHL10 EC50 (median).
The mark [4] stands for this setting: Homo sapiens, SU-DHL-5, 72 h, 72 h, CellTiter-Glo; read-out: Antiproli SUDHL5 IC50 (median).
Where [5] appears, read: Homo sapiens, AMO1, 72 h, 72 h, CellTiter-Glo; read-out: Antiproli AMO-1 IC50 median.
Setting [6] is: caspase-3/7 induction, 3 h; read-out: Caspase SUDHL10 EC50 (median).
Where [7] appears, read: 72 h, CellTiter-Glo; read-out: Antiproli SUDHL5 IC50 (median).
Where [8] appears, read: 72 h, CellTiter-Glo; read-out: Antiproli AMO-1 IC50 median.

As a reminder, the EC50 is the concentration at which the effect is half-maximal. Usually IC50 stands for the concentration needed to halve the response being measured. For `CCc1c2c(nn1C)C(CCN1CCOCC1)OCCCCn1c(C(=O)O)c(CCCOc3cccc4cc(F)ccc34)c3ccc(F)c-2c31` (racemic) [Example 49, (rac)-3-Ethyl-4-fluoro-7-{3-[(6-fluoronaphthalen-1-yl)oxy]propyl}-2-methyl-(15-rac)-[2-(morpholin-4-yl)ethyl]-2,10,11,12,13,15-hexahydropyrazolo[4′,3′:9,10][1,6]oxazacycloundecino[8,7,6-hi]indole-8-carboxylic Acid], in the data set on SUDHL10 cells [1] (setting [3]), the EC50 was found to be 21 nM. For the same compound, the IC50 with SUDHL10 cells [2] (Homo sapiens, SU-DHL10, 5 h) was determined as 33 nM; in the data set with SUDHL5 cells (setting [4]), 42 nM; in the data set with AMO-1 cells (setting [5]) it was 76.7 nM.
As for `CCc1c2c(nn1C)C(CC(C)(C)O)OCCCCn1c(C(=O)O)c(CCCOc3cccc4cc(F)ccc34)c3ccc(Cl)c-2c31` (racemic) [Example 52, (rac)-4-chloro-3-ethyl-7-{3-[(6-fluoronaphthalen-1-yl)oxy]propyl}-(15-rac)-(2-hydroxy-2-methylpropyl)-2-methyl-2,10,11,12,13,15-hexahydropyrazolo[4′,3′:9,10][1,6]oxazacycloundecino[8,7,6-hi]indole-8-carboxylic Acid], the EC50 in the data set on SUDHL10 cells [1] (setting [3]) came to 160 nM. The IC50 turned out to be 280 nM in the data set with SUDHL10 cells [2] (Homo sapiens, SU-DHL10, 5 h); 400 nM in the data set with SUDHL5 cells (setting [4]); 107 nM with AMO-1 cells (setting [5]).
The corresponding values for `CCc1c2c(nn1C)C(CCN1CCC(F)(F)C1)OCCCCn1c(C(=O)O)c(CCCOc3cccc4cc(F)ccc34)c3ccc(Cl)c-2c31` (racemic) [Example 55, (rac)-4-chloro-(15-rac)-[2-(3,3-difluoropyrrolidin-1-yl)ethyl]-3-ethyl-7-{3-[(6-fluoronaphthalen-1-yl)oxy]propyl}-2-methyl-2,10,11,12,13,15-hexahydropyrazolo[4′,3′:9,10][1,6]oxazacycloundecino[8,7,6-hi]indole-8-carboxylic acid—2-hydroxypropane-1,2,3-tricarboxylic Acid Salt] are 47 nM, 68 nM, 67 nM and 75.3 nM.
The corresponding values for `CCc1c2c(nn1C)C(c1ccccc1)OCCCCn1c(C(=O)O)c(CCCOc3cccc4cc(F)ccc34)c3ccc(Cl)c-2c31` (racemic) [Example 59, (rac)-4-chloro-3-ethyl-7-{3-[(6-fluoronaphthalen-1-yl)oxy]propyl}-2-methyl-(15-rac)-phenyl-2,10,11,12,13,15-hexahydropyrazolo[4′,3′:9,10][1,6]oxazacycloundecino[8,7,6-hi]indole-8-carboxylic Acid] are 570 nM, 1000 nM, 5100 nM and 753 nM.
As for `CCc1c2c(nn1C)C(CCC1CCOCC1)OCCCCn1c(C(=O)O)c(CCCOc3cccc4cc(F)ccc34)c3ccc(Cl)c-2c31` (racemic) [Example 60, (rac)-4-chloro-3-ethyl-7-{3-[(6-fluoronaphthalen-1-yl)oxy]propyl}-2-methyl-(15-rac)-[2-(oxan-4-yl)ethyl]-2,10,11,12,13,15-hexahydropyrazolo[4′,3′:9,10][1,6]oxazacycloundecino[8,7,6-hi]indole-8-carboxylic Acid], in the data set on SUDHL10 cells [1] (setting [3]), the EC50 is 77 nM. For the same compound, the values for the IC50 in the data set on SUDHL10 cells [2], in the data set with SUDHL5 cells (setting [4]) and in the data set with AMO-1 cells (setting [5]) were 87 nM, 65 nM and 92.9 nM, respectively.
Turning to `CCc1c2c(nn1C)C(CCCN1CCOCC1)OCCCCn1c(C(=O)O)c(CCCOc3cccc4cc(F)ccc34)c3ccc(Cl)c-2c31` (racemic) [Example 65, (rac)-4-chloro-3-ethyl-7-{3-[(6-fluoronaphthalen-1-yl)oxy]propyl}-2-methyl-(15-rac)-[3-(morpholin-4-yl)propyl]-2,10,11,12,13,15-hexahydropyrazolo[4′,3′:9,10][1,6]oxazacycloundecino[8,7,6-hi]indole-8-carboxylic Acid], in the data set with SUDHL10 cells [1] (setting [3]), the EC50 came to 42 nM. For the same compound, the IC50 in the data set on SUDHL10 cells [2] (Homo sapiens, SU-DHL10, 5 h) turned out to be 100 nM; with SUDHL5 cells (setting [4]) it was 490 nM; in the data set on AMO-1 cells (setting [5]) it was 89.7 nM.
The corresponding values for `CCc1c2c(nn1C)C(CCC(C)(C)O)OCCCCn1c(C(=O)O)c(CCCOc3cccc4cc(F)ccc34)c3ccc(Cl)c-2c31` (racemic) [Example 74, (rac)-4-chloro-3-ethyl-7-{3-[(6-fluoronaphthalen-1-yl)oxy]propyl}-(15-rac)-(3-hydroxy-3-methylbutyl)-2-methyl-2,10,11,12,13,15-hexahydropyrazolo[4′,3′:9,10][1,6]oxazacycloundecino[8,7,6-hi]indole-8-carboxylic Acid] are 33 nM, 55 nM, 67 nM and 35.8 nM.
On to `CCc1c2c(nn1C)C(Cc1ccccc1)OCCCCn1c(C(=O)O)c(CCCOc3cccc4cc(F)ccc34)c3ccc(Cl)c-2c31` (racemic) [Example 92, (rac)-(rac-15)-benzyl-4-chloro-3-ethyl-7-{3-[(6-fluoro-1-naphthyl)oxy]propyl}-2-methyl-2,10,11,12,13,15-hexahydropyrazolo[4′,3′:9,10][1,6]oxazacycloundecino[8,7,6-hi]indole-8-carboxylic Acid], for which the EC50 in the data set with SUDHL10 cells [1] (setting [3]) was 1100 nM. For the same compound, the 50% inhibitory concentration (IC50) in the data set on SUDHL10 cells [2] (Homo sapiens, SU-DHL10, 5 h) worked out at 1400 nM; with SUDHL5 cells (setting [4]), 1200 nM; in the data set on AMO-1 cells (setting [5]) it was 1360 nM.
The corresponding values for `CCc1c2c(nn1C)C1CCCCN1CCCCn1c(C(=O)O)c(CCCOc3cccc4ccccc34)c3ccc(Cl)c-2c31` (racemic) [Example 102, (rac)-18-chloro-1-ethyl-2-methyl-15-[3-(1-naphthyloxy)propyl]-2,3b,4,5,6,7,9,10,11,12-decahydropyrazolo[3′,4′:8,9]pyrido[1′,2′:6,7][1,6]diazacycloundecino[10,11,1-hi]indole-14-carboxylic Acid] are 1000 nM, 950 nM, 1400 nM and 522 nM.
As to `CCc1c2c(nn1C)C(CCN1CC(F)(F)C1)OCCCCn1c(C(=O)O)c(CCCOc3cccc4cc(F)ccc34)c3ccc(Cl)c-2c31` (single isomer, unassigned; (+)) [Example 78, (+)-4-chloro-15-[2-(3,3-difluoroazetidin-1-yl)ethyl]-3-ethyl-7-{3-[(6-fluoronaphthalen-1-yl)oxy]propyl}-2-methyl-2,10,11,12,13,15-hexahydropyrazolo[4′,3′:9,10][1,6]oxazacycloundecino[8,7,6-hi]indole-8-carboxylic Acid—N-ethylethanamine Salt], the EC50 in the data set with SUDHL10 cells [1] (setting [6]) was 9.9 nM. Moreover, the results for the IC50 in the data set with SUDHL10 cells [2], in the data set with SUDHL5 cells (setting [7]) and in the data set on AMO-1 cells (setting [8]) were 12 nM, 16 nM and 11.2 nM, respectively.
For `CCc1c2c(nn1C)C1CCCN1CCCCn1c(C(=O)O)c(CCCOc3cccc4cc(F)ccc34)c3ccc(Cl)c-2c31` (single isomer, unassigned; (+)) [Example 105, (+)-17-chloro-1-ethyl-14-{3-[(6-fluoronaphthalen-1-yl)oxy]propyl}-2-methyl-3b,4,5,6,8,9,10,11-octahydro-2H-pyrazolo[3′,4′:8,9]pyrrolo[1′,2′:6,7][1,6]diazacycloundecino[10,11,1-hi]indole-13-carboxylic Acid], the EC50 with SUDHL10 cells [1] (setting [6]) amounted to 130 nM. Besides, the IC50 came to 290 nM in the data set on SUDHL10 cells [2], 340 nM with SUDHL5 cells (setting [7]) and 203 nM with AMO-1 cells (setting [8]).
Consider `CCc1c2c(nn1C)C(CCN1CCOCC1)OCCCCn1c(C(=O)O)c(CCCOc3cccc4ccccc34)c3ccc(F)c-2c31` (single isomer, unassigned; enantiomer 1) [Example 11, 3-ethyl-4-fluoro-2-methyl-15-[2-(morpholin-4-yl)ethyl]-7-{3-[(naphthalen-1-yl)oxy]propyl}-2,10,11,12,13,15-hexahydropyrazolo[4′,3′:9,10][1,6]oxazacycloundecino[8,7,6-hi]indole-8-carboxylic Acid—N-ethylethanamine Salt (Enantiomer 1)], for which the EC50 in the data set with SUDHL10 cells [1] (read-out: Caspase SUDHL10 EC50 (median); caspase-3/7 induction, 3 h) worked out at 190 nM. Moreover, the IC50 worked out at 250 nM with SUDHL10 cells [2]; 75 nM in the data set with SUDHL5 cells (read-out: Antiproli SUDHL5 IC50 (median); 72 h, CellTiter-Glo); 159 nM in the data set with AMO-1 cells (read-out: Antiproli AMO-1 IC50 median; 72 h, CellTiter-Glo).
For `Cc1c2c(nn1C)C(CCN1CCOCC1)OCCCCn1c(C(=O)O)c(CCCOc3cccc4ccccc34)c3ccc(Cl)c-2c31` (single isomer, unassigned; enantiomer 1) [Example 14, 4-chloro-2,3-dimethyl-15-[2-(morpholin-4-yl)ethyl]-7-{3-[(naphthalen-1-yl)oxy]propyl}-2,10,11,12,13,15-hexahydropyrazolo[4′,3′:9,10][1,6]oxazacycloundecino[8,7,6-hi]indole-8-carboxylic Acid (Enantiomer 1)], the EC50 in the data set on SUDHL10 cells [1] (setting [6]) stood at 31 nM. For the same compound, the IC50 in the data set on SUDHL10 cells [2] is 34 nM; with SUDHL5 cells (setting [7]), 28 nM; with AMO-1 cells (setting [8]), 43.1 nM.
